Experimental data as given in patent publication US6573275B1, “Bicyclic amines” (Syngenta Limited, priority 1995, dated 2003).

Test system: peach aphid (Myzus persicae)
Assay: Insecticidal test against peach aphid, infested Chinese cabbage leaves sprayed
Assay type: in vivo
Settings: peach aphid (Myzus persicae) on Chinese cabbage leaves, sprayed with 500 ppm composition unless otherwise stated, mortality assessed after 3 days
Procedure, shortened: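 Aphid-infested Chinese cabbage leaves were sprayed with compound at 500 ppm unless otherwise stated, formulated in acetone/ethanol diluted with water containing 0.05% Synperonic NP8. Mortality was assessed after 3 days.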

Row | SMILES | Score (grading of mortality)
1 | CCOC(=O)CCN1C2CCC1CC(C#N)(c1cncc(Cl)c1)C2 (stereo not drawn) [Compound 140, exo-3-(5-chloropyrid-3-yl)-endo-3-cyano-8-(2-(ethoxycarbonyl)ethyl)-8-azabicyclo[3.2.1]octane] | A (A indicates 80-100% mortality)
2 | CC=CCN1C2CCC1CC(C#N)(c1cccnc1)C2 (stereo not drawn) [Compound 58] | C (C indicates less than 40% mortality)
3 | N#CC1(c2cncc(Cl)c2)CC2CCC(C1)N2CCF (stereo not drawn) [Compound 64] | A (A indicates 80-100% mortality)
4 | CCC(C)(C)N1C2CCC1CC(C#N)(c1cccnc1)C2 (stereo not drawn) [Compound 196] | A (A indicates 80-100% mortality)
5 | CC=COc1cncc(C2(C#N)CC3CCC(C2)N3C)c1 (stereo not drawn) [Compound 102] | A (A indicates 80-100% mortality)
6 | CC(=O)N1C2CCC1CC(C#N)(c1cncc(Cl)c1)C2 (stereo not drawn) [Compound 95, exo-3-(5-chloropyrid-3-yl)-endo-3-cyano-8-acetyl-8-azabicyclo[3.2.1]octane] | A (A indicates 80-100% mortality)
7 | N#CC1(c2cncc(Cl)c2)CC2CCC(C1)N2c1ccc(C(=O)O)cc1 (stereo not drawn) [Compound 170] | B (B indicates 40-79% mortality)
8 | C=CC(C)(c1ccccc1)N1C2CCC1CC(C#N)(c1cncc(Cl)c1)C2 (stereo not drawn) [Compound 175, exo-3-(5-chloropyrid-3-yl)-endo-3-cyano-8-(2-phenylbut-3-en-2-yl)-8-azabicyclo[3.2.1]octane] | A (A indicates 80-100% mortality)
9 | N#CC1(c2cncc(Cl)c2)CC2CCC(C1)N2CC(F)F (stereo not drawn) [Compound 142, exo-3-(5-chloropyrid-3-yl)-endo-3-cyano-8-(2,2-difluoroethyl)-8-azabicyclo[3.2.1]octane] | A (A indicates 80-100% mortality)
10 | Cc1nc(CN2C3CCC2CC(C#N)(c2cncc(Cl)c2)C3)cs1 (stereo not drawn) [Compound 123, exo-3-(5-chloropyrid-3-yl)-endo-3-cyano-8-((2-methylthiazol-4-yl)methyl)-8-azabicyclo[3.2.1]octane] | A (A indicates 80-100% mortality)
11 | N#CC1(c2cc(F)cc(F)c2)CC2CCC(C1)N2c1ccc([N+](=O)[O-])cc1 (stereo not drawn) [Compound 59] | A (A indicates 80-100% mortality)
12 | N#CC1(c2cc(F)cc(F)c2)CC2CCC(C1)N2c1cccc(Cl)n1 (stereo not drawn) [Compound 28] | C (C indicates less than 40% mortality)
13 | COC(=O)C(C)N1C2CCC1CC(C#N)(c1cncc(Cl)c1)C2 (racemic) [Compound 212] | A (A indicates 80-100% mortality)
14 | Cc1ncc(CN2C3CCC2CC(C#N)(c2cc(F)cc(F)c2)C3)s1 (stereo not drawn) [Compound 29] | B (B indicates 40-79% mortality)
15 | N#CC1(c2ccccc2)CC2CCC(C1)N2Cc1ccccc1 (single isomer, unassigned) [Compound 31] | C (C indicates less than 40% mortality)
16 | CC(CO)CN1C2CCC1CC(C#N)(c1cncc(Cl)c1)C2 (stereo not drawn) [Compound 290] | A (A indicates 80-100% mortality)
17 | CC(C)(C)N1C2CCC1CC(C#N)(c1cncc(Cl)c1)C2 (stereo not drawn) [Compound 139, exo-3-(5-chloropyrid-3-yl)-endo-3-cyano-8-(tert-butyl)-8-azabicyclo[3.2.1]octane] | A (A indicates 80-100% mortality)
18 | CCN1C2CCC1CC(C#N)(c1cccnc1)C2 (stereo not drawn) [Compound 38] | A (A indicates 80-100% mortality)
19 | C#CCN1C2CCC1CC(C#N)(c1cccnc1)C2 (stereo not drawn) [Compound 56] | A (A indicates 80-100% mortality)
20 | N#CC1(c2cncc(Cl)c2)CC2CCC(C1)N2Cc1cccc2ccccc12 (stereo not drawn) [Compound 236] | A (A indicates 80-100% mortality)
21 | CN1C2CCC1CC(C#N)(c1cccc(F)c1)C2 (stereo not drawn) [Compound 53] | A (A indicates 80-100% mortality)
22 | Cc1cccc(CN2C3CCC2CC(C#N)(c2cc(F)cc(F)c2)C3)c1 (stereo not drawn) [Compound 13] | B (B indicates 40-79% mortality)
23 | CC(c1ccccc1)(C(O)C#N)N1C2CCC1CC(C#N)(c1cncc(Cl)c1)C2 (stereo not drawn) [Compound 192, exo-3-(5-chloropyrid-3-yl)-endo-3-cyano-8-(1-hydroxy-1-cyano-2-phenylprop-2-yl)-8-azabicyclo[3.2.1]octane] | A (A indicates 80-100% mortality)
24 | CC(=O)Nc1cncc(C2(C#N)CC3CCC(C2)N3C)c1 (stereo not drawn) [Compound 165, exo-3-(5-acetylamidopyrid-3-yl)-endo-3-cyano-8-methyl-8-azabicyclo[3.2.1]octane] | A (A indicates 80-100% mortality)
25 | N#CC1(c2cncc(Cl)c2)CC2CCC(C1)N2CC=C(F)F (stereo not drawn) [Compound 106, exo-3-(5-chloropyrid-3-yl)-endo-3-cyano-8-(3,3-difluoroprop-2-en-1-yl)-8-azabicyclo[3.2.1]octane] | A (A indicates 80-100% mortality)
26 | CN1C2CCC1CC(C#N)(c1cncc(F)c1)C2 (stereo not drawn) [Compound 202, exo-3-(5-fluoropyrid-3-yl)-endo-3-cyano-8-methyl-8-azabicyclo[3.2.1]octane] | A (A indicates 80-100% mortality)

Row | SMILES | Score (grading of mortality)
27 | N#CC1(c2cncc(Cl)c2)CC2CCC(C1)N2Cc1c(F)cc(F)cc1F (stereo not drawn) [Compound 113] | A (A indicates 80-100% mortality)
28 | N#CC1(c2cncc(Cl)c2)CC2CCC(C1)N2c1cccc(Cl)n1 (stereo not drawn) [Compound 137] | C (C indicates less than 40% mortality)
29 | N#CC1(c2cncc(Cl)c2)CC2CCC(C1)N2CP(=O)(O)O (stereo not drawn) [Compound 292, exo-3-(5-chloropyrid-3-yl)-endo-3-cyano-8-phosphonomethyl-8-azabicyclo[3.2.1]octane] | A (A indicates 80-100% mortality)
30 | CN1C2CCC1CC(C#N)(c1cncc(C(C)(C)O)c1)C2 (stereo not drawn) [Compound 206] | A (A indicates 80-100% mortality)
31 | N#CC1(c2cc(F)cc(F)c2)CC2CCC(C1)N2CC=C(F)F (stereo not drawn) [Compound 18] | A (A indicates 80-100% mortality)
32 | CN1C2CCC1CC(C#N)(c1cc(F)cc(F)c1)C2 (stereo not drawn) [Compound 2, exo-3-(3,5-difluorophenyl)-endo-3-cyano-8-methyl-8-azabicyclo[3.2.1]octane] | A (A indicates 80-100% mortality)
33 | N#CC1(c2cncc(Cl)c2)CC2CCC(C1)N2Cc1cccnc1 (stereo not drawn) [Compound 118] | A (A indicates 80-100% mortality)
34 | N#CC1(c2cncc(Cl)c2)CC2CCC(C1)N2Cc1cccc(C(F)(F)F)c1 (stereo not drawn) [Compound 255] | A (A indicates 80-100% mortality)
35 | C=COC(=O)N1C2CCC1CC(C#N)(c1cncc(I)c1)C2 (stereo not drawn) [Compound 309, exo-3-(5-iodopyrid-3-yl)-endo-3-cyano-8-(vinyloxycarbonyl)-8-azabicyclo[3.2.1]octane] | A (A indicates 80-100% mortality)
36 | N#CC1(c2cc(F)cc(F)c2)CC2CCC(C1)N2c1ccccn1 (stereo not drawn) [Compound 73] | C (C indicates less than 40% mortality)
37 | CC(CO)(c1ccccc1)N1C2CCC1CC(C#N)(c1cncc(Cl)c1)C2 (stereo not drawn) [Compound 176, exo-3-(5-chloropyrid-3-yl)-endo-3-cyano-8-(2-phenyl-3-hydroxyprop-2-yl)-8-azabicyclo[3.2.1]octane] | A (A indicates 80-100% mortality)
38 | C=CCN1C2CCC1CC(C#N)(c1cc(F)cc(F)c1)C2 (stereo not drawn) [Compound 21] | A (A indicates 80-100% mortality)
39 | N#CC1(c2cncc(Cl)c2)CC2CCC(C1)N2Cc1cccc(C(=O)c2c(F)cccc2F)c1 (stereo not drawn) [Compound 233] | A (A indicates 80-100% mortality)
40 | CC(C)NC(C)(CN1C2CCC1CC(C#N)(c1cncc(Cl)c1)C2)c1ccccc1 (stereo not drawn) [Compound 191, exo-3-(5-chloropyrid-3-yl)-endo-3-cyano-8-(2-(isopropylamino)-2-phenylprop-1-yl)-8-azabicyclo[3.2.1]octane] | A (A indicates 80-100% mortality)
41 | N#CCN1C2CCC1CC(C#N)(c1cncc(Cl)n1)C2 (stereo not drawn) [Compound 301] | A (A indicates 80-100% mortality)
42 | C=COC(=O)N1C2CCC1CC(C#N)(c1cncc(C)c1)C2 (stereo not drawn) [Compound 221, exo-3-(5-methylpyrid-3-yl)-endo-3-cyano-8-(vinyloxycarbonyl)-8-azabicyclo[3.2.1]octane] | A (A indicates 80-100% mortality)
43 | N#CC1(c2cncc(Cl)c2)CC2CCC(C1)N2Cc1nnsc1Cl (stereo not drawn) [Compound 158, exo-3-(5-chloropyrid-3-yl)-endo-3-cyano-8-((5-chloro-1,2,3-thiadiazol-4-yl)methyl)-8-azabicyclo[3.2.1]octane] | A (A indicates 80-100% mortality)
44 | N#CC1(c2cncc(Cl)c2)CC2CCC(C1)N2Cc1cccc(C(=O)c2ccccc2)c1 (stereo not drawn) [Compound 231] | A (A indicates 80-100% mortality)
45 | N#Cc1ccc(N2C3CCC2CC(C#N)(c2cncc(Cl)c2)C3)cc1 (stereo not drawn) [Compound 105] | B (B indicates 40-79% mortality)
46 | COCCN1C2CCC1CC(C#N)(c1cc(F)cc(F)c1)C2 (stereo not drawn) [Compound 25] | A (A indicates 80-100% mortality)
47 | CC(F)(CN1C2CCC1CC(C#N)(c1cncc(Cl)c1)C2)c1ccccc1 (stereo not drawn) [Compound 179, exo-3-(5-chloropyrid-3-yl)-endo-3-cyano-8-(2-fluoro-2-phenylprop-1-yl)-8-azabicyclo[3.2.1]octane] | A (A indicates 80-100% mortality)
48 | Cc1noc(C)c1CN1C2CCC1CC(C#N)(c1cncc(Cl)c1)C2 (stereo not drawn) [Compound 124, exo-3-(5-chloropyrid-3-yl)-endo-3-cyano-8-((3,5-dimethylisoxazol-4-yl)methyl)-8-azabicyclo[3.2.1]octane] | A (A indicates 80-100% mortality)
49 | CN(C(=O)N1C2CCC1CC(C#N)(c1cncc(Cl)c1)C2)c1ccccc1 (stereo not drawn) [Compound 145] | A (A indicates 80-100% mortality)
50 | CN1C2CCC1CC(C#N)(c1cccnc1)C2 (stereo not drawn) [Compound 57] | A (A indicates 80-100% mortality)
51 | C=COC(=O)N1C2CCC1CC(C#N)(c1cncc(Br)c1)C2 (stereo not drawn) [Compound 181] | A (A indicates 80-100% mortality)
